System: patients with chronic and stable compensated congestive HF
Test: Open-label pilot study of IV recombinant relaxin over 24 hours in chronic heart failure patients
Format: in vivo, human
Conditions: for CI Change from baseline / CO Change from baseline / DBP Change from baseline / HR Change from baseline / PAP Change from baseline / PCWP Change from baseline / PVR Change from baseline / RAP Change from baseline / SBP Change from baseline / SVR Change from baseline: 8 hr, mean ± SD
Procedure: Overview. In this open-label study 16 patients with chronic and stable compensated congestive HF were enrolled in three dose-ascending cohorts of recombinant intravenous relaxin (10 to 960 mcg/kg/day) over 24 hours. Relaxin produced increases in cardiac index and stroke volume, and a decrease in pulmonary wedge pressure and NT-pro BNP. It improved markers of renal function, with a small rebound at the highest dose during post-infusion. […] A maximally tolerated dose was determined.
Design of Study. In this single-center, open-label study, 16 patients who fulfilled inclusion and but not exclusion criteria for chronic and stable compensated congestive HF were sequentially allocated to three ascending cohorts of intravenous (IV) relaxin. Main inclusion criteria included: Age >18 years; NYHA CHF Class II-III without restriction on etiology; left ventricular ejection fraction <35% within 6 months of enrollment; receiving established oral HF therapy expected to remain unchanged during the study period. Main exclusion criteria included: Wedge pressure <16 mmH or CI >2.5 L/min/m2; acute coronary syndrome (within 4 weeks) or recent myocardial infarction or cardiac surgery (within 6 months); AHF requiring intravenous therapy at baseline; systolic blood pressure <85 mmHg; uncorrected valvular heart disease, except for relative mitral and/or tricuspid valve insufficiency; obstructive or restrictive cardiomyopathy; recent episode of ventricular tachycardia or fibrillation (within 4 weeks); recent stroke (within 3 months); creatinine >2.0 mg/dl or serum transaminases and/or total bilirubin >2.5 times the upper limit of normal at screening visit; history of endometriosis.
The study drug was relaxin (produced by recombinant technology). Recombinant relaxin is identical to the native human hormone H2 relaxin. The dose escalation was as follows: Group A included sequential treatment for 8 hours each with dosages equivalent to 10, 30, and 100 mcg/kg/day. Group B included sequential treatment for 8 hours each with dosages equivalent to 240, 480, and 960 mcg/kg/day. Group C received 24 hours of treatment with 960 mcg/kg/day. Escalation from Group A to Group B was done after examining safety and tolerability of the doses used in Group A. Escalation from Group B to C occurred after the safety and tolerability of the highest dose in Group B (960 mcg/kg/day) was determined.
Patients were monitored in the intensive care unit for the infusion and post-infusion periods (24 hours either). Hemodynamic measurements, including CI, SVR, PCWP, SBP, RAP, and PVR, were serially performed using Swan-Ganz and arterial catheters. Likewise, clinical and laboratory monitoring was carried out serially throughout infusion and post-infusion and on Day 9 after beginning of infusion. An additional 30-day evaluation for serious adverse events was performed by phone. Endpoints included hemodynamic and neurohumoral (NT-pro BNP levels) changes from baseline, as well as monitoring of vital signs, electrocardiogram, serum chemistry, and hematology parameters throughout the study. For statistical analysis, an error probability of P<0.05 was regarded as significant. Baseline values were compared using the Kruskal-Wallis ANOVA on ranks followed by Dunn's test. Differences over time within the single groups (hemodynamics, renal parameter, and peptide levels) were analyzed with a Friedman Repeated Measures Analysis of Variance on Ranks followed by Dunn's test for comparison against the baseline.

## relaxin: Study drug produced by recombinant technology, identical to the native human hormone H2 relaxin; peptide hormone of A and B chains
Day 9, after doses equivalent to 960 mcg/kg/day IV
  creatinine increases post-infusion: ≤ 0.5 mg/dL
Group A, 10 mcg/kg/d IV
  CI Change from baseline: 0.08 ± 0.3 L/min/m2
  CO Change from baseline: 0.13 ± 0.5 L/min
  DBP Change from baseline: −3.0 ± 4.2 mmHg
  HR Change from baseline: 3.3 ± 7.6 beats/min
  PAP Change from baseline: −3.75 ± 4.1 mmHg
  PCWP Change from baseline: −1.8 ± 1.9 mmHg
  PVR Change from baseline: −17.3 ± 60.5 dynes * sec/cm5
  RAP Change from baseline: 0.8 ± 0.9 mmHg
  SBP Change from baseline: −12.5 ± 9.3 mmHg
  SVR Change from baseline: −143 ± 140 dynes * sec/cm5
Group A, 30 mcg/kg/d IV
  CI Change from baseline: 0.25 ± 0.4 L/min/m2
  CO Change from baseline: 0.45 ± 0.6 L/min
  DBP Change from baseline: 2.5 ± 10.9 mmHg
  HR Change from baseline: 2.3 ± 16.2 beats/min
  PAP Change from baseline: −4.0 ± 5.5 mmHg
  PCWP Change from baseline: −5.0 ± 2.6 mmHg
  PVR Change from baseline: −0.5 ± 56.7 dynes * sec/cm5
  RAP Change from baseline: −1.0 ± 1.8 mmHg
  SBP Change from baseline: −5.3 ± 16.8 mmHg
  SVR Change from baseline: −171 ± 159 dynes * sec/cm5
Group A, 100 mcg/kg/d IV
  CI Change from baseline: 0.25 ± 0.2 L/min/m2
  CO Change from baseline: 0.45 ± 0.2 L/min
  DBP Change from baseline: −5.0 ± 3.7 mmHg
  HR Change from baseline: 0.5 ± 1.3 beats/min
  PAP Change from baseline: −4.5 ± 4.2 mmHg
  PCWP Change from baseline: −3.5 ± 3.7 mmHg
  PVR Change from baseline: −25.3 ± 28.9 dynes * sec/cm5
  RAP Change from baseline: −0.8 ± 1.2 mmHg
  SBP Change from baseline: −13.0 ± 8.3 mmHg
  SVR Change from baseline: −288 ± 92 dynes * sec/cm5
Group B
  time course of NT-pro BNP: no change
Group B, 240 mcg/kg/d IV
  CI Change from baseline: 0.28 ± 0.2 L/min/m2
  CO Change from baseline: 0.62 ± 0.4 L/min
  DBP Change from baseline: 3.0 ± 6.0 mmHg
  HR Change from baseline: 1.7 ± 6.7 beats/min
  PAP Change from baseline: −1.7 ± 1.6 mmHg
  PCWP Change from baseline: −1.5 ± 1.9 mmHg
  PVR Change from baseline: −14.8 ± 16.9 dynes * sec/cm5
  RAP Change from baseline: 0.3 ± 1.4 mmHg
  SBP Change from baseline: −2.5 ± 7.4 mmHg
  SVR Change from baseline: −150 ± 138 dynes * sec/cm5
Group B, 480 mcg/kg/d IV
  CI Change from baseline: 0.17 ± 0.3 L/min/m2
  CO Change from baseline: 0.33 ± 0.7 L/min
  DBP Change from baseline: 0.0 ± 7.2 mmHg
  HR Change from baseline: −1.8 ± 4.5 beats/min
  PAP Change from baseline: 1.7 ± 2.7 mmHg
  PCWP Change from baseline: 0.33 ± 2.6 mmHg
  PVR Change from baseline: 5.5 ± 35.2 dynes * sec/cm5
  RAP Change from baseline: 0.5 ± 1.1 mmHg
  SBP Change from baseline: 2.2 ± 5.6 mmHg
  SVR Change from baseline: −12 ± 219 dynes * sec/cm5
